Experimental data taken from PubChem BioAssay AID1982 (Sanford-Burnham Center for Chemical Genomics, 2009).
The source made the active and inactive calls. How the calls were made is not given here.

Key:
Experiment in all cases: kinase panel binding selectivity, selectivity assay, biochemical, KINOMEscan (AID 1982)
[1] = target: MAP kinase-activated protein kinase 5 (Homo sapiens) (UniProt Q8IW41); conditions: KINOMEscan 353-kinase binding panel, qPCR; MAPKAPK5; at 10 µM; active compounds read low
MAP kinase-activated protein kinase 5 (Homo sapiens), sequence (Q8IW41 whole entry, looked up): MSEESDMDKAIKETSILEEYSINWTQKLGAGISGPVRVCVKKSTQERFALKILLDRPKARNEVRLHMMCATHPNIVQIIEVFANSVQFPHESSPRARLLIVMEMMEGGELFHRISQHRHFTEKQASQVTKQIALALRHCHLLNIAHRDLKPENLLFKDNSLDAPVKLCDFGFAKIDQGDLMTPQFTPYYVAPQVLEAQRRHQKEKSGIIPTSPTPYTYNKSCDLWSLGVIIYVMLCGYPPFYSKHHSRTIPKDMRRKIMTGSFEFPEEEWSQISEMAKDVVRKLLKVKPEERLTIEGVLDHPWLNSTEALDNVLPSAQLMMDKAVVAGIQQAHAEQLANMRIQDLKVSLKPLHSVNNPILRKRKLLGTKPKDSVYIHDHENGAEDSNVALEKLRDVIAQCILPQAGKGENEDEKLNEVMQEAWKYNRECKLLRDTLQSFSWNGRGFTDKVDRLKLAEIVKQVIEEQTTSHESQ

[2] = target: MAP/microtubule affinity-regulating kinase 3 (Homo sapiens) (UniProt P27448); conditions: KINOMEscan 353-kinase binding panel, qPCR; MARK3; at 10 µM; active compounds read low
MAP/microtubule affinity-regulating kinase 3 (Homo sapiens), sequence (P27448 whole entry, looked up): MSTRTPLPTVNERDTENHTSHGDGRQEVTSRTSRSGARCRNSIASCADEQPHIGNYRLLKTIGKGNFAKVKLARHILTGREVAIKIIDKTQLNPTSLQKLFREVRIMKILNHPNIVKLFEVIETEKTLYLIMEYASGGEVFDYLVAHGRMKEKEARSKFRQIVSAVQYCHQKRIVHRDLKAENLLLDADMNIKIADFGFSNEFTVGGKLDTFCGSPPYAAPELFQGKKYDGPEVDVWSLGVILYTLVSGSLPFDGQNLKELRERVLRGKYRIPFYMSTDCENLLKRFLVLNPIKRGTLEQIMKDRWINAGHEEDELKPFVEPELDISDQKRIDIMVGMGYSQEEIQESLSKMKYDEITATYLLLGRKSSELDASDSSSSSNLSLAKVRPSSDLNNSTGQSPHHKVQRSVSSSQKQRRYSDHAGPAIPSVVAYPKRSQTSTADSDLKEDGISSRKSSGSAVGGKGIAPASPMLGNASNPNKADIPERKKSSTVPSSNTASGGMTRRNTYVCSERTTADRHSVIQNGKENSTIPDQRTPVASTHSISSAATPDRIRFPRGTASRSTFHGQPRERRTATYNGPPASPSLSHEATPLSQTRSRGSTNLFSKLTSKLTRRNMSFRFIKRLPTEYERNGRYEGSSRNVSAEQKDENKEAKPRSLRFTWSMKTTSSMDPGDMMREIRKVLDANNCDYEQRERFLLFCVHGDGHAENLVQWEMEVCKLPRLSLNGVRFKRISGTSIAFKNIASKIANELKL

[3] = target: Platelet-derived growth factor receptor beta (Homo sapiens) (UniProt P09619); conditions: KINOMEscan 353-kinase binding panel, qPCR; PDGFRB; at 10 µM; active compounds read low
[4] = test system: LATS2; conditions: KINOMEscan 353-kinase binding panel, qPCR, at 10 µM, active compounds read low
[5] = test system: MEK2; conditions: KINOMEscan 353-kinase binding panel, qPCR, at 10 µM, active compounds read low
[6] = target: Serine/threonine-protein kinase Nek2 (Homo sapiens) (UniProt P51955); conditions: KINOMEscan 353-kinase binding panel, qPCR, at 10 µM, active compounds read low
[7] = target: Mitogen-activated protein kinase 3 (Homo sapiens) (UniProt P27361); conditions: KINOMEscan 353-kinase binding panel, qPCR; ERK1; at 10 µM; active compounds read low
Mitogen-activated protein kinase 3 (Homo sapiens), sequence (P27361 whole entry, looked up): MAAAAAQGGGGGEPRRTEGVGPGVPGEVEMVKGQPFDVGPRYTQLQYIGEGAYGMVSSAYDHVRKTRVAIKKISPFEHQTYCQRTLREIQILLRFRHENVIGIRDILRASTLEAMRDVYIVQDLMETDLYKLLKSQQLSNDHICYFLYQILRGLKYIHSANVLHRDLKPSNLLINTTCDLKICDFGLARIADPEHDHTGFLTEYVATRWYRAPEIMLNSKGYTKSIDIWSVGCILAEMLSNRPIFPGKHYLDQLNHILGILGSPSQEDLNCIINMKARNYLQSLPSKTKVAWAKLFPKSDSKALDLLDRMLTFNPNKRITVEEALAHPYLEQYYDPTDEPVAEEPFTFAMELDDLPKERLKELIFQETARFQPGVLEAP

[8] = target: 5'-AMP-activated protein kinase catalytic subunit alpha-1 (Homo sapiens) (UniProt Q13131); conditions: KINOMEscan 353-kinase binding panel, qPCR; AMPK-alpha1; at 10 µM; active compounds read low
[9] = target: Mitogen-activated protein kinase kinase kinase 5 (Homo sapiens) (UniProt Q99683); conditions: KINOMEscan 353-kinase binding panel, qPCR; MAP3K5; at 10 µM; active compounds read low
[10] = test system: NEK6; conditions: KINOMEscan 353-kinase binding panel, qPCR, at 10 µM, active compounds read low
[11] = test system: TNNI3K; conditions: KINOMEscan 353-kinase binding panel, qPCR, at 10 µM, active compounds read low
[12] = target: Vascular endothelial growth factor receptor 3 (Homo sapiens) (UniProt P35916); conditions: KINOMEscan 353-kinase binding panel, qPCR; FLT4; at 10 µM; active compounds read low
Vascular endothelial growth factor receptor 3 (Homo sapiens), sequence (P35916 whole entry, looked up): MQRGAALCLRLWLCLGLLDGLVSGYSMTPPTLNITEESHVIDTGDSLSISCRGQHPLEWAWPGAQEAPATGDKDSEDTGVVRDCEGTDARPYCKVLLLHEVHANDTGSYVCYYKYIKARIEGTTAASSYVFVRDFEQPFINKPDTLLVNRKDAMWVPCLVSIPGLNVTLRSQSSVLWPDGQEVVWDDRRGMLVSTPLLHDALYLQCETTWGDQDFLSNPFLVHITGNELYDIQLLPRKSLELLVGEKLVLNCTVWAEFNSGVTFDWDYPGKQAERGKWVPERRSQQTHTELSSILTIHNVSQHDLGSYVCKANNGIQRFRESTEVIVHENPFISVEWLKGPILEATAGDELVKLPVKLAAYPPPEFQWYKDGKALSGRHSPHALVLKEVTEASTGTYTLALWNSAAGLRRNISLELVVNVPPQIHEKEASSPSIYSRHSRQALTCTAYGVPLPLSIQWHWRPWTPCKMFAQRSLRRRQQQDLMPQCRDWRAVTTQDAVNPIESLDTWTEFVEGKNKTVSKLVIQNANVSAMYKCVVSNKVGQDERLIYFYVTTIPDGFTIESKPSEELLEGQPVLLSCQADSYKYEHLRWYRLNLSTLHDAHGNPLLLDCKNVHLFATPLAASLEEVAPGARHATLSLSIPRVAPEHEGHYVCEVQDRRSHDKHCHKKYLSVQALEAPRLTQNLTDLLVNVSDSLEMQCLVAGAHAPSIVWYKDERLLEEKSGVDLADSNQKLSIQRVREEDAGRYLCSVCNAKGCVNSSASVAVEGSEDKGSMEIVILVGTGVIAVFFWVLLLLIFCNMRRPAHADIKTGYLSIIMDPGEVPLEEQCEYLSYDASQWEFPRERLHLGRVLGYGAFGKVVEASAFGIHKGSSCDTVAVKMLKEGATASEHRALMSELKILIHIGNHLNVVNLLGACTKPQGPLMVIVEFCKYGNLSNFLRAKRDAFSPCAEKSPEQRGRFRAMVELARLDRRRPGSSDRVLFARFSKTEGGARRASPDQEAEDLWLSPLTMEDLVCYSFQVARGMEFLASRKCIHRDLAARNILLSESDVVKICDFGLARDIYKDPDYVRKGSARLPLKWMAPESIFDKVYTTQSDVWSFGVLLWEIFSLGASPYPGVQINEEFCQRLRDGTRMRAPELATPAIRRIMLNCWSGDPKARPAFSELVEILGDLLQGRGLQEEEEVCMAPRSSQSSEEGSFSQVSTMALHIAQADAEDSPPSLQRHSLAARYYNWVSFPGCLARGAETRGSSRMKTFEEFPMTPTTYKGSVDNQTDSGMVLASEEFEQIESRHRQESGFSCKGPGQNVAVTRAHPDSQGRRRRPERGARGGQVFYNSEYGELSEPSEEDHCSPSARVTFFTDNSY

[13] = target: Tyrosine-protein kinase BTK (Homo sapiens) (UniProt Q06187); conditions: KINOMEscan 353-kinase binding panel, qPCR, at 10 µM, active compounds read low
[14] = target: Ephrin type-A receptor 2 (Homo sapiens) (UniProt P29317); conditions: KINOMEscan 353-kinase binding panel, qPCR; EPHA2; at 10 µM; active compounds read low
Ephrin type-A receptor 2 (Homo sapiens), sequence (P29317 whole entry, looked up): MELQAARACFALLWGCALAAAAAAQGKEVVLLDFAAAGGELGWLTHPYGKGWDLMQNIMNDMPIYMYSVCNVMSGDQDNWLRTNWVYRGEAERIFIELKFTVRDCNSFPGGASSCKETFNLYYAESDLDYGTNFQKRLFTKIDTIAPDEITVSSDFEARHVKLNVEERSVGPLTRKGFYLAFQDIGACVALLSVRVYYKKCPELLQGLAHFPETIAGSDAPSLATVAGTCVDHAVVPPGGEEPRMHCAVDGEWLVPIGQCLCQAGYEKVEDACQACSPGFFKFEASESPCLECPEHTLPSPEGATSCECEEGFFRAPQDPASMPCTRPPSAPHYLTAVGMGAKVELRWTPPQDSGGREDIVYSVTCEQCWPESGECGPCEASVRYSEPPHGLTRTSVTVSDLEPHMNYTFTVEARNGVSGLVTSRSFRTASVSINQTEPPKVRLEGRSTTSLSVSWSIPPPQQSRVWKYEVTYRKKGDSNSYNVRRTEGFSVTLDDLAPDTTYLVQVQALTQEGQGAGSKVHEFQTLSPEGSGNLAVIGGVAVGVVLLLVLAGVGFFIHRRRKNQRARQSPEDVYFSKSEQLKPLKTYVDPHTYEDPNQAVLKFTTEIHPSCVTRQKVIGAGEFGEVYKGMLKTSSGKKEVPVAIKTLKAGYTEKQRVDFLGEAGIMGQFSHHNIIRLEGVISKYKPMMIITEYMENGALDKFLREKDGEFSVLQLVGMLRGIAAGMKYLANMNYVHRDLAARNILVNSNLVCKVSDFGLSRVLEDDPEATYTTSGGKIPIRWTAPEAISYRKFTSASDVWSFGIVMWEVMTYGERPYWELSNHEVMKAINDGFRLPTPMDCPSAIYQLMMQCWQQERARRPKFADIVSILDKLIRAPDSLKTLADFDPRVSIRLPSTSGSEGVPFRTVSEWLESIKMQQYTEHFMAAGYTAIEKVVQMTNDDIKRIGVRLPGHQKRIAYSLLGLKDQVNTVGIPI

[15] = target: Wee1-like protein kinase 2 (Homo sapiens) (UniProt P0C1S8); conditions: KINOMEscan 353-kinase binding panel, qPCR; WEE2; at 10 µM; active compounds read low
[16] = test system: PCTK1; conditions: KINOMEscan 353-kinase binding panel, qPCR, at 10 µM, active compounds read low
[17] = test system: RIPK1; conditions: KINOMEscan 353-kinase binding panel, qPCR, at 10 µM, active compounds read low
[18] = test system: EPHB2; conditions: KINOMEscan 353-kinase binding panel, qPCR, at 10 µM, active compounds read low
[19] = target: cAMP-dependent protein kinase catalytic subunit alpha (Homo sapiens) (UniProt P17612); conditions: KINOMEscan 353-kinase binding panel, qPCR; PKAC-alpha; at 10 µM; active compounds read low
[20] = test system: EPHA7; conditions: KINOMEscan 353-kinase binding panel, qPCR, at 10 µM, active compounds read low
[21] = test system: MYO3B; conditions: KINOMEscan 353-kinase binding panel, qPCR, at 10 µM, active compounds read low
[22] = target: Proto-oncogene tyrosine-protein kinase Src (Homo sapiens) (UniProt P12931); conditions: KINOMEscan 353-kinase binding panel, qPCR, at 10 µM, active compounds read low
[23] = test system: CIT; conditions: KINOMEscan 353-kinase binding panel, qPCR, at 10 µM, active compounds read low
[24] = test system: JAK1(Kin.Dom.2); conditions: KINOMEscan 353-kinase binding panel, qPCR, at 10 µM, active compounds read low
[25] = test system: MARK1; conditions: KINOMEscan 353-kinase binding panel, qPCR, at 10 µM, active compounds read low
[26] = target: Protein kinase C delta type (Homo sapiens) (UniProt Q05655); conditions: KINOMEscan 353-kinase binding panel, qPCR; PRKCD; at 10 µM; active compounds read low
[27] = test system: RPS6KA6(Kin.Dom.2); conditions: KINOMEscan 353-kinase binding panel, qPCR, at 10 µM, active compounds read low
[28] = test system: EPHB4; conditions: KINOMEscan 353-kinase binding panel, qPCR, at 10 µM, active compounds read low
[29] = test system: DRAK2; conditions: KINOMEscan 353-kinase binding panel, qPCR, at 10 µM, active compounds read low
[30] = target: Mast/stem cell growth factor receptor Kit (Homo sapiens) (UniProt P10721); conditions: KINOMEscan 353-kinase binding panel, qPCR, at 10 µM, active compounds read low
Mast/stem cell growth factor receptor Kit (Homo sapiens), sequence (P10721 whole entry, looked up, canonical isoform): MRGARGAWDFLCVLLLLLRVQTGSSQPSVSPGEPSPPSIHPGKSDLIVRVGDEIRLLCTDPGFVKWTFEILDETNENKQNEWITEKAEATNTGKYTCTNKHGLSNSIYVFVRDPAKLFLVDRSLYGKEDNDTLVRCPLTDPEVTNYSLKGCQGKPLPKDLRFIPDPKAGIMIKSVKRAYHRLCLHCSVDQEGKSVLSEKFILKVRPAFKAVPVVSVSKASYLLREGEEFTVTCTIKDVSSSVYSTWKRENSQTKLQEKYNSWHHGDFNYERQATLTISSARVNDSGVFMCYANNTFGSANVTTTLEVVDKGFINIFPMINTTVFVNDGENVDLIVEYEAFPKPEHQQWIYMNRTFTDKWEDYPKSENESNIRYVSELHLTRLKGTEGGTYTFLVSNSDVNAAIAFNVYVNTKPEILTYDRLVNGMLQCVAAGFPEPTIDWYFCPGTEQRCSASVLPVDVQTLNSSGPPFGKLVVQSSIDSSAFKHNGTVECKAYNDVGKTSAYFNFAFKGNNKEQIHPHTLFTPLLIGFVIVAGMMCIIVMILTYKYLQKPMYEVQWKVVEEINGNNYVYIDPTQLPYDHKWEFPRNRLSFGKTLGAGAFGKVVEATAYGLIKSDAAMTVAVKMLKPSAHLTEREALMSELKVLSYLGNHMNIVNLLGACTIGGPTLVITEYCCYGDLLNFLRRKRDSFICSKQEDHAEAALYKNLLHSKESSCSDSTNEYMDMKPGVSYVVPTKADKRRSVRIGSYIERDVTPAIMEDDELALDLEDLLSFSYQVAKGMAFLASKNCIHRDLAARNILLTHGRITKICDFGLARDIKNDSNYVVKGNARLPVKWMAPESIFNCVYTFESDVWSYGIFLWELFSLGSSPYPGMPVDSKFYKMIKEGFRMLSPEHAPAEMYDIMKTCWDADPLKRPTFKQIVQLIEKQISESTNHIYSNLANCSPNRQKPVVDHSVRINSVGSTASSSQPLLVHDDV

[31] = target: Phosphorylase b kinase gamma catalytic chain, liver/testis isoform (Homo sapiens) (UniProt P15735); conditions: KINOMEscan 353-kinase binding panel, qPCR; PHKG2; at 10 µM; active compounds read low
[32] = target: Protein-tyrosine kinase 6 (Homo sapiens) (UniProt Q13882); conditions: KINOMEscan 353-kinase binding panel, qPCR; PTK6; at 10 µM; active compounds read low

Measured: percent of control binding

Cc1cc2nc(NCCCO)n(CC(=O)c3cc(C(C)(C)C)c(O)c(C(C)(C)C)c3)c2cc1C
inactive: [1] 100% | [2] 100% | [3] 87% | [4] 89% | [5] 87% | [6] 84% | [7] 94% | [8] 94% | [9] 100% | [10] 93% | [11] 82% | [12] 100% | [13] 85% | [14] 100% | [15] 100% | [16] 84% | [17] 100% | [18] 96% | [19] 94% | [20] 87% | [21] 65% | [22] 100% | [23] 100% | [24] 90% | [25] 100% | [26] 100% | [27] 100% | [28] 98% | [29] 100% | [30] 92% | [30]; KIT(D816V) 90% | [30]; KIT(V559D) 95% | [30]; KIT(V559D,T670I) 94% | [30]; KIT(V559D,V654A) 92% | [31] 100% | [32] 100%
